Test results reported in patent publication US5445941A, “Method for screening anti-osteoporosis agents” (Eli Lilly and Company, priority 1993, dated 1995).
“Also recorded” adds a separate entry of the source.

Experiments:
TGFβ-3 promoter [1] = assay: Reporter induction, pB-301 (TGFβ-3 promoter) and pRSVER in MG63 cells; format: cell-based, human; conditions: control 0.7
Procedure: These assays were performed essentially as in Example V.
(§1) Transfected cells were treated with varying amounts and combinations of hormones and then rinsed twice with D-PBS. Cells were then lysed upon incubation with 250 μL of eukaryotic cell lysis reagent (as described in Example VI) at 4° C. for 20 min and transferred to microcentrifuge tubes by scraping with a rubber policeman. Cell lysates were centrifuged at 14,000 rpm for 1 minute to remove cell debris. Cell extracts (supernatant) were then assayed for protein content and luciferase activities.
(§2) Luciferase assays were performed as follows. 50 μL of each cell extract was added to 100 μL of reagent A buffer (containing 4.0 mM ATP/15 mM MgSO4 / 30 mM tricine buffer (pH 7.8)/ 10 mM DTT) in individual wells of a microtiter plate. 100 μL of 1 mM D(-)-luciferin (in 0.1M KPO4 (pH 7.8); Boehringer Mannheim) were added to each well and the amount of light produced measured by using a ML3000 microtiter plate luminometer (under conditions of integrate flash mode, high gain, integrate window=10 seconds, at a temperature of 22° C.). Luciferase activities were calculated as total light output relative to protein content in each cell lysate sample.

[2] = system: estrogen responsive element (ERE) of the vitellogenin promoter; assay: Luciferase reporter induction, pGL2ERELUC (vitellogenin ERE) and pRSVER in MG63 cells; format: cell-based, human; conditions: for reporter gene expression, pGL2ERELUC: control 1.7
Description: Complementary oligonucleotides corresponding to the estrogen-responsive element (ERE) from the Xenopus laevis vitellogenin Az gene promoter (corresponding to positions -341 to -310; Metzger et al., 1988, Nature 334: 31-36) were designed, synthesized and annealed to form a double-stranded region that is an estrogen responsive element essentially as described in Example I. A sequence comprising an XhoI restriction enzyme recognition site was synthesized to be flanking the ERE sequences, the element having the following nucleotide sequence (shown as SEQ ID NOS:8 and 9, respectively):
The double-stranded ERE was subcloned into XhoI-digested […] (Promega) whereby the luciferase gene was placed under the transcriptional influence of the ERE. This plasmid was designated pGL2ERELUC and used in further experiments as described below (Example VI).
Similar assays were performed using cultures of MG63 cells transiently transfected with pGL2ERELUC and pRSVER.
as §1, §2

TGFβ-3 promoter [3] = assay: Dose response of TGFβ-3 promoter (pB-301) CAT induction in MG63 cells with pRSVER; conditions: for CAT activity: vehicle 0.85
Procedure: For each group of twelve cultures, the particular estrogen or antiestrogen compound was tested in replicate cultures at […], varying in tenfold increments from 10^-9 M to 10^-5 M, as well as one set of replicate cultures treated with vehicle only (for a total of twelve cultures per experimental treatment). Hormones were dissolved in ethanol and applied to the cultures in media as described above. The four estrogens and antiestrogens tested were:
a. 17β-estradiol (Sigma Chemical Corp., St. Louis, Mo.);

TGFβ-3 promoter [4] = assay: TGFβ-3 activation in CHO cells (pB-301 and pRSVER, CAT); format: cell-based, hamster; conditions: 24 h, 0 M 10.6
TGFβ-3 promoter [5] = assay: TGFβ-3 activation in MCF-7 cells (pTGFβ-301LUC, luciferase); format: cell-based, human; conditions: 24 h, 0 M 7.8
Procedure: Cultures of MCF-7 cells were transiently transfected with pTGFβ-301LUCas described in Example IV.
After 24 hours of treatment with the hormonal preparation (or the vehicle control), the cells were washed, harvested, lysed and assayed for LUC activity according to the method of Example VI.

TGFβ-3 promoter [6] = assay: TGFβ-3 promoter transcription in RL59.2, HeLa and COS-1 cells; format: cell-based, human; conditions: RL59.2, HeLa and COS-1 (monkey kidney) cells
Procedure: Similar assays were performed in human endometrial cancer cells (RL59.2), human cervical cancer cells (HeLa) and monkey kidney cells (COS-1) (American Type Culture Collection, Rockville, Md.).

LDL receptor promoter [7] = assay: LDLR-Luc production in presence of ER (pLDLRLUC10 and pRSVER, HepG2 cells); format: cell-based, human; conditions: listed as estrogen
Description: (§3) A 1546 base pair sequence of the human LDL receptor promoter was amplified using the polymerase chain reaction. A reaction mixture containing 20 picomoles each of the synthetic oligonucleotides:
(§4) The 1546 base pair fragment described above was isolated and cloned into the vector pSv2 containing firefly luciferase reporter gene that had been restriction enzyme digested to completion with NdeI and partially with HindIII. The resulting vector, pLDLRLUC10 contains the human LDL receptor promoter directing expression of the firefly luciferase gene, an ampicillin resistance marker and an origin of replication.
ATCC strain HepG2 cells were co-transfected with pLDLRLUC10 and pRSVER as described in Example IV.

LDL receptor promoter [8] = assay: LDLR-Luc production in the absence of ER (pLDLRLUC10 and pRSV vector, HepG2 cells); format: cell-based, human; conditions: for LDLR-Luc production: no ER, 0 M 1597
Description: as §3, §4
ATCC strain HepG2 cells were co-transfected with pLDLRLUC10 and pRSV vector plasmid as described in Example IV.

TGFβ-1 mRNA = conditions: HEC-50, 1% ctFBS; cited from earlier work
[9] = system: LDL receptor messenger RNA; conditions: in vivo; cited from earlier work
[10] = animal models and humans; cited from earlier work
TGFβ-2 promoter = assay: CAT reporter expression, TGFβ-2 promoter (pTGF-1), MG63 cells cotransfected with pRSVER; conditions: TGFβ-2 promoter
Procedure: Co-transfection experiments were performed in MG63 (human osteosarcoma) cells, using the ProFection Mammalian Transfection System (Promega). […] The cells were then refed with fresh 3:1 media containing 10% csFBS. Compounds to be evaluated for their ability to modulate reporter gene expression were added at the appropriate times and assayed as described below.
Cultures of MG63 cells were transiently co-transfected with pRSVER plasmid and either phTG12, pTGF-1, or pB2-499 using the ProFection system (Promega). For each transfected cell culture, DNA-containing calcium phosphate precipitates were added dropwise to each culture dish and mixed thoroughly in the media. The pH of the media was carefully maintained between pH 7.2 and pH 7.4. Transfected cell cultures were then incubated overnight in a 5% CO2 atmosphere at 37° C. For all cultures, the precipitate was removed after overnight incubation by aspirating the media from the culture dishes, followed by rinsing each dish twice with D-PBS. For each cotransfected cell line, the buffer was replaced with 10 ml fresh medium containing 10% csFBS and one of the following compositions:
a. 10 μl ethanol (hormone vehicle)=control;
b. 10 μl 17β-estradiol (Sigma) ("estradiol") at a concentration of 10^-4 M in ethanol;
d. 10 μl Tamoxifen (Sigma) at a concentration of 10^-4 M in ethanol.
After 24 h incubation with these hormonal preparations (or the vehicle control), cells were washed twice with D-PBS. The cells were then scraped from the culture dishes using a rubber policeman and 1 ml of D-PBS. Cells were collected by centrifugation at 8,000 rpm for 2 minutes in a tabletop centrifuge (MicroMax Model, IEC, Newark, N.Y.). The supernatant was removed and the cell pellets were resuspended in 150 μL of a 0.25M Tris-HCl solution (pH 7.8). Cells were lysed by three cycles of freezing in a dry ice/ethanol bath and thawing in a water bath at 37° C. water bath (for 3 minutes each cycle). Lysed cell preparations were centrifuged at 15,000 rpm for 5 minutes at 4° C. to remove cell debris. Supernatants containing the soluble cell lysate were transferred to a new set of tubes for assaying chloramphenicol acetyltransferase (CAT) activity.
Before performing CAT assays on such cell lysates, the protein content of each lysate was first determined using a commercially-available assay (BioRad Laboratories, Richmond, Calif.). […]

Question: With C[C@]12CC[C@@H]3c4ccc(O)cc4CC[C@H]3[C@@H]1CC[C@@H]2O [estradiol, 17β-estradiol] as the compound, how does the “reporter gene expression, pB-301” value (TGFβ-3 promoter [1]; 10^-5 M) read?
Answer: The value was 8.0.

Question: What about the “reporter gene expression, pB-301” value (TGFβ-3 promoter [1]; 10^-6 M) of the same compound?
Answer: The value was 5.2.

Question: And the “reporter gene expression, pB-301” value (TGFβ-3 promoter [1]; 10^-7 M)?
Answer: The value was 5.5.

Question: What about the “reporter gene expression, pB-301” value (TGFβ-3 promoter [1]; 10^-8 M) of the same compound?
Answer: The value was 3.2.

Question: And the “reporter gene expression, pB-301” value (TGFβ-3 promoter [1]; 10^-9 M)?
Answer: The value was 1.1.

Question: And the “induction of vitellogenin gene transcription (in words)” value [2]?
Answer: The value was “strongly induced”.

Question: What about the “reporter gene expression, pGL2ERELUC” value ([2]; 10^-5 M) of the same compound?
Answer: The value was 6.5.

Question: What about the “reporter gene expression, pGL2ERELUC” value ([2]; 10^-6 M) of the same compound?
Answer: Its value is 6.2.

Question: What about the “reporter gene expression, pGL2ERELUC” value ([2]; 10^-7 M) of the same compound?
Answer: Its value is 5.9.

Question: And the “reporter gene expression, pGL2ERELUC” value ([2]; 10^-8 M)?
Answer: Its value is 5.5.

Question: And the “reporter gene expression, pGL2ERELUC” value ([2]; 10^-9 M)?
Answer: Its value is 5.8.

Question: What about the CAT activity (TGFβ-3 promoter [3]; 10^-5 M, 24 h) of the same compound?
Answer: The CAT activity was 3.4.

Question: And the CAT activity (TGFβ-3 promoter [3]; 10^-6 M, 24 h)?
Answer: The CAT activity was 4.3.

Question: And the CAT activity (TGFβ-3 promoter [3]; 10^-7 M, 24 h)?
Answer: Its CAT activity is 1.6.

Question: What about the CAT activity (TGFβ-3 promoter [3]; 10^-8 M, 24 h) of the same compound?
Answer: The CAT activity was 1.1.

Question: What about the CAT activity (TGFβ-3 promoter [3]; 10^-9 M, 24 h) of the same compound?
Answer: Its CAT activity is 0.96.

Question: What about the “ED50 (in words)” value (TGFβ-3 promoter [3]; MG63 cells) of the same compound?
Answer: Its value is “two orders of magnitude higher than that of raloxifene”.

Question: What about the “TGFβ-3 promoter activation (in words)” value (TGFβ-3 promoter [3]; MG63 cells) of the same compound?
Answer: Its value is “least potent inducer”.

Question: And the “induction of reporter gene transcription/expression” value (TGFβ-3 promoter [3]; mg63 cells, 24 h)?
Answer: Its value is 4 fold.

Question: And the CAT activity (TGFβ-3 promoter [4]; 10^-5 M)?
Answer: The CAT activity was 33.3.

Question: What about the CAT activity (TGFβ-3 promoter [4]; 10^-6 M) of the same compound?
Answer: The CAT activity was 32.9.

Question: And the CAT activity (TGFβ-3 promoter [4]; 10^-7 M)?
Answer: Its CAT activity is 29.4.

Question: What about the CAT activity (TGFβ-3 promoter [4]; 10^-8 M) of the same compound?
Answer: The CAT activity was 22.6.

Question: What about the CAT activity (TGFβ-3 promoter [4]; 10^-9 M) of the same compound?
Answer: Its CAT activity is 11.9.

Question: What about the Luciferase activity (TGFβ-3 promoter [5]; 10^-5 M) of the same compound?
Answer: The Luciferase activity was 122 thousands of units.

Question: What about the Luciferase activity (TGFβ-3 promoter [5]; 10^-6 M) of the same compound?
Answer: Its Luciferase activity is 101.3 thousands of units.

Question: And the Luciferase activity (TGFβ-3 promoter [5]; 10^-7 M)?
Answer: Its Luciferase activity is 107.3 thousands of units.

Question: And the Luciferase activity (TGFβ-3 promoter [5]; 10^-8 M)?
Answer: The Luciferase activity was 9.1 thousands of units.

Question: What about the Luciferase activity (TGFβ-3 promoter [5]; 10^-9 M) of the same compound?
Answer: Its Luciferase activity is 19.2 thousands of units.

Question: And the “transcription initiated by the TGFβ-3 promoter (in words)” value (TGFβ-3 promoter [6])?
Answer: Its value is “induced”.

Question: And the “induction of LDL receptor promoter/expression (in words)” value (LDL receptor promoter [7])?
Answer: Its value is “mediated by ER; also recorded: have the ability to induce LDL receptor expression”.

Question: What about the “induction of LDLR promoter without ER (in words)” value (LDL receptor promoter [8]; at or below 10^-6 M, or high concentrations as worded, FIG. 16) of the same compound?
Answer: Its value is “No induction”.

Question: What about the LDLR-Luc production (LDL receptor promoter [8]; 10^-5 M) of the same compound?
Answer: The LDLR-Luc production was 2445.

Question: And the LDLR-Luc production (LDL receptor promoter [8]; 10^-6 M)?
Answer: Its LDLR-Luc production is 1578.

Question: What about the LDLR-Luc production (LDL receptor promoter [8]; 10^-7 M) of the same compound?
Answer: The LDLR-Luc production was 1574.

Question: What about the LDLR-Luc production (LDL receptor promoter [8]; 10^-8 M) of the same compound?
Answer: Its LDLR-Luc production is 1792.

Question: And the LDLR-Luc production (LDL receptor promoter [8]; 10^-9 M)?
Answer: The LDLR-Luc production was 1645.

Question: What about the “TGFβ-1 mRNA concentration (in words)” value (TGFβ-1 mRNA) of the same compound?
Answer: Its value is “Decreased concentrations of TGFβ-1 mRNA”.

Question: What about the “LDL receptor messenger RNA (in words)” value [9] of the same compound?
Answer: Its value is “induces LDL receptor messenger RNA in vivo”.

Question: And the “serum lipid lowering effect (in words)” value [10]?
Answer: Its value is “serum lipid lowering effect”.

Question: What about the “Act. (relative CAT activity)” value (TGFβ-2 promoter; 10 μl of 10^-4 M in 10 ml medium, 24 h, control 0.8) of the same compound?
Answer: Its value is 1.29.

Question: What about the “Fold Ind.” value (TGFβ-2 promoter; comparison with control, 1440 min, 0.1 µM) of the same compound?
Answer: The value was 1.6 fold.
